In PMC7531004, “Discovery of gramicidin A analogues with altered activities by multidimensional screening of a one-bead-one-compound library” (Nature Communications, 2020):
Where a SMILES comes first, the peptide text is derived from it. [ ]: non-standard residue; d: D form. The star is where a group is joined. NHCH2CH2OH = OCCN*; For = O=C*

Experiments:
[1] = tested on: P388 mouse leukemia cells; details: 92 h
Outline: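 Peptide stocks diluted 250× in growth medium; P388 cells 1 × 10^4 cells/mL final; 37 °C, 5% CO2, 92 h. WST-1 + 1-methoxy PMS, 4 h, A415. Output: % viability.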

[2] = H+/Na+ transport assay of bead-derived peptides (one-point); assay type: biochemical; set-up: key: relative activity; mean of two control wells = 1.00; details: bead-derived peptide solution, EYPC/EYPG LUVs;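 note: relative to parent gramicidin A activity set to 1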
Outline: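 Values are normalized fluorescence, with Triton X-100 defining 100% and untreated LUVs 0%, and the two control wells averaging 1.00. Vesicles carried 1.0 mM pyranine and included egg yolk phosphatidylglycerol. Peptides were incubated with them 30 min at room temperature.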

[3] = tested on: Streptococcus pyogenes SSI-9; experiment: Antibacterial activity assay of bead-derived peptides (three concentrations); assay type: cell-based; set-up: key: +++: inhibition by the 640-fold diluted peptide solution; ++: inhibition by the 160-fold diluted solution; +: inhibition by the 40-fold diluted solution; -: no inhibition; details: S. pyogenes, bead-derived peptide solution, three concentrations
Outline: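 First, each peptide stock was diluted 4- and 16-fold in DMSO; next, the three solutions were mixed with S. pyogenes SSI-9 suspension (2 × 10^5 CFU) in cation-adjusted Mueller Hinton Broth plus 5% laked horse blood; finally, plates stood 18 h at 37 °C before checking for grown-cell precipitation.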

Structure (SMILES)	cell viability/% [1]	H+/Na+ transport activity normalized against the value of 1 (1.00) [2]	antibacterial activity [3]
CC(C)C[C@@H](NC(=O)[C@H](C)NC(=O)CNC(=O)[C@@H](NC=O)C(C)C)C(=O)N[C@@H](C)C(=O)N[C@H](CC(C)C)C(=O)N[C@H](C(=O)N[C@H](CC(C)C)C(=O)N[C@@H](Cc1c[nH]c2ccccc12)C(=O)N[C@@H](C(=O)N[C@@H](Cc1c[nH]c2ccccc12)C(=O)N[C@@H](C(=O)N[C@@H](Cc1c[nH]c2ccccc12)C(=O)N[C@@H](C(=O)N[C@@H](Cc1c[nH]c2ccccc12)C(=O)NCCO)C(C)C)C(C)C)[C@H](C)O)C(C)C [compound 5996] (For-VGA[dL]A[dL]V[dL]W[dT]W[dV]W[dV]W-NHCH2CH2OH)	78.7%	1.08	-
CC(C)C[C@@H](NC(=O)[C@H](Cc1c[nH]c2ccccc12)NC(=O)[C@@H](CC(C)C)NC(=O)[C@H](Cc1c[nH]c2ccccc12)NC(=O)[C@@H](CC(C)C)NC(=O)[C@H](Cc1c[nH]c2ccccc12)NC(=O)[C@H](NC(=O)[C@@H](NC(=O)[C@H](NC(=O)[C@H](C)NC(=O)[C@H](NC(=O)[C@H](C)NC(=O)CNC(=O)[C@@H](NC=O)C(C)C)C(C)C)C(C)C)C(C)C)[C@H](C)O)C(=O)N[C@@H](Cc1c[nH]c2ccccc12)C(=O)NCCO [compound 12287] (For-VGA[dV]A[dV]V[dT]W[dL]W[dL]W[dL]W-NHCH2CH2OH)	100.0%	1.16	-
CC(C)C[C@@H](NC(=O)[C@H](C)NC(=O)CNC(=O)[C@@H](NC=O)C(C)C)C(=O)N[C@@H](C)C(=O)N[C@H](CC(C)C)C(=O)N[C@H](C(=O)N[C@@H](C(=O)N[C@@H](Cc1c[nH]c2ccccc12)C(=O)N[C@@H](C(=O)N[C@@H](Cc1c[nH]c2ccccc12)C(=O)N[C@@H](C(=O)N[C@@H](Cc1c[nH]c2ccccc12)C(=O)N[C@@H](C(=O)N[C@@H](Cc1c[nH]c2ccccc12)C(=O)NCCO)C(C)C)[C@H](C)O)C(C)C)C(C)C)C(C)C [compound 8749] (For-VGA[dL]A[dL]V[dV]W[dV]W[dT]W[dV]W-NHCH2CH2OH)	62.2%	1.05	-
CNC(=O)C[C@@H](NC(=O)[C@@H](NC(=O)[C@@H](CC(C)C)NC(=O)[C@H](C)NC(=O)[C@H](NC(=O)[C@H](C)NC(=O)CNC(=O)[C@@H](NC=O)C(C)C)C(C)C)C(C)C)C(=O)N[C@@H](Cc1c[nH]c2ccccc12)C(=O)N[C@@H](C(=O)N[C@@H](Cc1c[nH]c2ccccc12)C(=O)N[C@@H](C(=O)N[C@@H](Cc1c[nH]c2ccccc12)C(=O)N[C@@H](C(=O)N[C@@H](Cc1c[nH]c2ccccc12)C(=O)NCCO)C(C)C)C(C)C)C(C)C [compound 11383] (For-VGA[dV]A[dL]V[dD](NHMe)W[dV]W[dV]W[dV]W-NHCH2CH2OH)	55.3%	1.09	-
CC(C)C[C@@H](NC(=O)[C@H](C)NC(=O)[C@H](NC(=O)[C@H](C)NC(=O)CNC(=O)[C@@H](NC=O)C(C)C)C(C)C)C(=O)N[C@H](C(=O)N[C@@H](C(=O)N[C@@H](Cc1c[nH]c2ccccc12)C(=O)N[C@H](CC(C)C)C(=O)N[C@@H](Cc1c[nH]c2ccccc12)C(=O)N[C@@H](C(=O)N[C@@H](Cc1c[nH]c2ccccc12)C(=O)N[C@@H](C(=O)N[C@@H](Cc1c[nH]c2ccccc12)C(=O)NCCO)C(C)C)C(C)C)[C@H](C)O)C(C)C [compound 9487] (For-VGA[dV]A[dL]V[dT]W[dL]W[dV]W[dV]W-NHCH2CH2OH)	100.0%	1.15	-
CNC(=O)C[C@@H](NC(=O)[C@H](Cc1c[nH]c2ccccc12)NC(=O)[C@H](NC(=O)[C@H](Cc1c[nH]c2ccccc12)NC(=O)[C@@H](CC(C)C)NC(=O)[C@H](Cc1c[nH]c2ccccc12)NC(=O)[C@H](NC(=O)[C@@H](NC(=O)[C@H](NC(=O)[C@H](C)NC(=O)[C@@H](CC(C)C)NC(=O)[C@H](C)NC(=O)CNC(=O)[C@@H](NC=O)C(C)C)C(C)C)C(C)C)C(C)C)C(C)C)C(=O)N[C@@H](Cc1c[nH]c2ccccc12)C(=O)NCCO [compound 7948] (For-VGA[dL]A[dV]V[dV]W[dL]W[dV]W[dD](NHMe)W-NHCH2CH2OH)	100.0%	1.04	-
CC(C)C[C@@H](NC(=O)[C@H](C)NC(=O)[C@H](NC(=O)[C@H](C)NC(=O)CNC(=O)[C@@H](NC=O)C(C)C)[C@H](C)O)C(=O)N[C@H](C(=O)N[C@H](CC(C)C)C(=O)N[C@@H](Cc1c[nH]c2ccccc12)C(=O)N[C@@H](C(=O)N[C@@H](Cc1c[nH]c2ccccc12)C(=O)N[C@@H](C(=O)N[C@@H](Cc1c[nH]c2ccccc12)C(=O)N[C@H](CC(C)C)C(=O)N[C@@H](Cc1c[nH]c2ccccc12)C(=O)NCCO)C(C)C)[C@H](C)O)C(C)C [compound 7015] (For-VGA[dT]A[dL]V[dL]W[dT]W[dV]W[dL]W-NHCH2CH2OH)	100.0%	1.07	-
CC(C)C[C@@H](NC(=O)[C@H](Cc1c[nH]c2ccccc12)NC(=O)[C@H](NC(=O)[C@H](Cc1c[nH]c2ccccc12)NC(=O)[C@@H](CC(C)C)NC(=O)[C@@H](NC(=O)[C@H](NC(=O)[C@H](C)NC(=O)[C@H](NC(=O)[C@H](C)NC(=O)CNC(=O)[C@@H](NC=O)C(C)C)[C@H](C)O)C(C)C)C(C)C)C(C)C)C(=O)N[C@@H](Cc1c[nH]c2ccccc12)C(=O)N[C@@H](C(=O)N[C@@H](Cc1c[nH]c2ccccc12)C(=O)NCCO)C(C)C [compound 11238] (For-VGA[dT]A[dV]V[dL]W[dV]W[dL]W[dV]W-NHCH2CH2OH)	64.7%	1.03	-
CNC(=O)C[C@@H](NC(=O)[C@@H](NC(=O)[C@@H](CC(C)C)NC(=O)[C@H](C)NC(=O)[C@@H](CC(C)C)NC(=O)[C@H](C)NC(=O)CNC(=O)[C@@H](NC=O)C(C)C)C(C)C)C(=O)N[C@@H](Cc1c[nH]c2ccccc12)C(=O)N[C@H](CC(C)C)C(=O)N[C@@H](Cc1c[nH]c2ccccc12)C(=O)N[C@@H](C(=O)N[C@@H](Cc1c[nH]c2ccccc12)C(=O)N[C@H](CC(C)C)C(=O)N[C@@H](Cc1c[nH]c2ccccc12)C(=O)NCCO)C(C)C [compound 2953] (For-VGA[dL]A[dL]V[dD](NHMe)W[dL]W[dV]W[dL]W-NHCH2CH2OH)	100.0%	1.20	-
CNC(=O)C[C@@H](NC(=O)[C@H](Cc1c[nH]c2ccccc12)NC(=O)[C@H](NC(=O)[C@H](Cc1c[nH]c2ccccc12)NC(=O)[C@H](NC(=O)[C@H](Cc1c[nH]c2ccccc12)NC(=O)[C@@H](CC(C)C)NC(=O)[C@@H](NC(=O)[C@H](NC(=O)[C@H](C)NC(=O)[C@H](NC(=O)[C@H](C)NC(=O)CNC(=O)[C@@H](NC=O)C(C)C)C(C)C)C(C)C)C(C)C)C(C)C)C(C)C)C(=O)N[C@@H](Cc1c[nH]c2ccccc12)C(=O)NCCO [compound 12691] (For-VGA[dV]A[dV]V[dL]W[dV]W[dV]W[dD](NHMe)W-NHCH2CH2OH)	100.0%	1.11	-
CC(C)C[C@@H](NC(=O)[C@H](C)NC(=O)CNC(=O)[C@@H](NC=O)C(C)C)C(=O)N[C@@H](C)C(=O)N[C@@H](C(=O)N[C@H](C(=O)N[C@H](CC(C)C)C(=O)N[C@@H](Cc1c[nH]c2ccccc12)C(=O)N[C@H](CC(C)C)C(=O)N[C@@H](Cc1c[nH]c2ccccc12)C(=O)N[C@@H](C(=O)N[C@@H](Cc1c[nH]c2ccccc12)C(=O)N[C@H](CC(C)C)C(=O)N[C@@H](Cc1c[nH]c2ccccc12)C(=O)NCCO)C(C)C)C(C)C)C(C)C [compound 3847] (For-VGA[dL]A[dV]V[dL]W[dL]W[dV]W[dL]W-NHCH2CH2OH)	0.0%	1.22	+
CNC(=O)C[C@@H](NC(=O)[C@H](Cc1c[nH]c2ccccc12)NC(=O)[C@@H](CC(C)C)NC(=O)[C@H](Cc1c[nH]c2ccccc12)NC(=O)[C@@H](CC(C)C)NC(=O)[C@H](Cc1c[nH]c2ccccc12)NC(=O)[C@H](NC(=O)[C@@H](NC(=O)[C@@H](CC(C)C)NC(=O)[C@H](C)NC(=O)[C@@H](CC(C)C)NC(=O)[C@H](C)NC(=O)CNC(=O)[C@@H](NC=O)C(C)C)C(C)C)C(C)C)C(=O)N[C@@H](Cc1c[nH]c2ccccc12)C(=O)NCCO [compound 11401] (For-VGA[dL]A[dL]V[dV]W[dL]W[dL]W[dD](NHMe)W-NHCH2CH2OH)	56.6%	1.09	-
CC(C)C[C@@H](NC(=O)[C@H](C)NC(=O)CNC(=O)[C@@H](NC=O)C(C)C)C(=O)N[C@@H](C)C(=O)N[C@H](CC(C)C)C(=O)N[C@H](C(=O)N[C@H](CC(C)C)C(=O)N[C@@H](Cc1c[nH]c2ccccc12)C(=O)N[C@@H](C(=O)N[C@@H](Cc1c[nH]c2ccccc12)C(=O)N[C@H](CC(C)C)C(=O)N[C@@H](Cc1c[nH]c2ccccc12)C(=O)N[C@H](CC(C)C)C(=O)N[C@@H](Cc1c[nH]c2ccccc12)C(=O)NCCO)[C@H](C)O)C(C)C [compound 7211] (For-VGA[dL]A[dL]V[dL]W[dT]W[dL]W[dL]W-NHCH2CH2OH)	100.0%	1.03	-
